Tested on: 192522-019-R-J2-PDC complex tumor spheroid viability
Assay: Anticancer human tumor 192522-019-R-J2-PDC patient-derived colon adenocarcinoma cell line growth inhibition [POLQ]
Conditions: for IC50: curve of first compound; for viability, T/C: stronger effect = lower value
Method in brief: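 Patient-derived tumour cells were co-cultured with HUVEC and mesenchymal stem cells as multicellular spheroids at 37 °C. They were treated with POLQ inhibitors (novobiocin, ART-558, RP6685) alone or combined with other agents. Top concentrations were at or near clinical Cmax (otherwise 10 microM; SN-38 at 1 microM), decreasing in half-log steps.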

[1] = second compound 0.0316 µM, first compound 0.0316 µM
[2] = second compound 0.0316 µM, first compound 0.1 µM
[3] = second compound 0.0316 µM, first compound 0.316 µM
[4] = second compound 0.0316 µM, first compound 1 µM
[5] = second compound 0.0316 µM, first compound 3.16 µM
[6] = second compound 0.0316 µM, first compound 10 µM
[7] = second compound 0.1 µM, first compound 0.0316 µM
[8] = second compound 0.1 µM, first compound 0.1 µM
[9] = second compound 0.1 µM, first compound 0.316 µM
[10] = second compound 0.1 µM, first compound 1 µM
[11] = second compound 0.1 µM, first compound 3.16 µM
[12] = second compound 0.1 µM, first compound 10 µM
[13] = second compound 0.316 µM, first compound 0.0316 µM
[14] = second compound 0.316 µM, first compound 0.1 µM
[15] = second compound 0.316 µM, first compound 0.316 µM
[16] = second compound 0.316 µM, first compound 1 µM
[17] = second compound 0.316 µM, first compound 3.16 µM
[18] = second compound 0.316 µM, first compound 10 µM
[19] = second compound 1 µM, first compound 0.0316 µM
[20] = second compound 1 µM, first compound 0.1 µM
[21] = second compound 1 µM, first compound 0.316 µM
[22] = second compound 1 µM, first compound 1 µM
[23] = second compound 1 µM, first compound 3.16 µM
[24] = second compound 1 µM, first compound 10 µM
[25] = second compound 3.16 µM, first compound 0.0316 µM
[26] = second compound 3.16 µM, first compound 0.1 µM
[27] = second compound 3.16 µM, first compound 0.316 µM
[28] = second compound 3.16 µM, first compound 1 µM
[29] = second compound 3.16 µM, first compound 3.16 µM
[30] = second compound 3.16 µM, first compound 10 µM
[31] = second compound 10 µM, first compound 0.0316 µM
[32] = second compound 10 µM, first compound 0.1 µM
[33] = second compound 10 µM, first compound 0.316 µM
[34] = second compound 10 µM, first compound 1 µM
[35] = second compound 10 µM, first compound 3.16 µM
[36] = second compound 10 µM, first compound 10 µM
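Further: spheroids exposed to drugs for seven days before reading.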
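Wherever viability, T/C is given: 100% = DMSO vehicle control viability in luminescence.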

## C=CC(=O)N1CCN(c2nc(=O)n(-c3c(C)ccnc3C(C)C)c3nc(-c4c(O)cccc4F)c(F)cc23)C(C)C1 (centres undefined) + COC1C(OC(N)=O)C(O)C(Oc2ccc3c(O)c(NC(=O)c4ccc(O)c(CC=C(C)C)c4)c(=O)oc3c2C)OC1(C)C
Second compound 0.0316 µM
  IC50: > 10 µM
Second compound 0.1 µM
  IC50: > 10 µM
Second compound 0.316 µM
  IC50: > 10 µM
Second compound 1 µM
  IC50: > 10 µM
Second compound 3.16 µM
  IC50: > 10 µM
Second compound 10 µM
  IC50: > 10 µM
[1]
  viability, T/C: 107%
[2]
  viability, T/C: 96.2%
[3]
  viability, T/C: 103%
[4]
  viability, T/C: 98.7%
[5]
  viability, T/C: 107%
[6]
  viability, T/C: 97%
[7]
  viability, T/C: 101%
[8]
  viability, T/C: 91.1%
[9]
  viability, T/C: 93.3%
[10]
  viability, T/C: 96.5%
[11]
  viability, T/C: 101%
[12]
  viability, T/C: 105%
[13]
  viability, T/C: 103%
[14]
  viability, T/C: 101%
[15]
  viability, T/C: 101%
[16]
  viability, T/C: 99.7%
[17]
  viability, T/C: 105%
[18]
  viability, T/C: 114%
[19]
  viability, T/C: 97.7%
[20]
  viability, T/C: 105%
[21]
  viability, T/C: 112%
[22]
  viability, T/C: 110%
[23]
  viability, T/C: 109%
[24]
  viability, T/C: 121%
[25]
  viability, T/C: 103%
[26]
  viability, T/C: 105%
[27]
  viability, T/C: 109%
[28]
  viability, T/C: 106%
[29]
  viability, T/C: 117%
[30]
  viability, T/C: 102%
[31]
  viability, T/C: 104%
[32]
  viability, T/C: 92.5%
[33]
  viability, T/C: 105%
[34]
  viability, T/C: 96.8%
[35]
  viability, T/C: 118%
[36]
  viability, T/C: 107%

## COc1cccc2c1C(=O)c1c(O)c3c(c(O)c1C2=O)CC(O)(C(=O)CO)CC3OC1CC(N)C(O)C(C)O1 (centres undefined) + Cc1cccc(N(C)C(=O)C2C(O)CCN2c2nc(C)cc(C(F)(F)F)c2C#N)c1
Second compound 0.0316 µM
  IC50: > 10 µM
Second compound 0.1 µM
  IC50: > 10 µM
Second compound 0.316 µM
  IC50: > 10 µM
Second compound 1 µM
  IC50: > 10 µM
Second compound 3.16 µM
  IC50: > 10 µM
Second compound 10 µM
  IC50: > 10 µM
[1]
  viability, T/C: 99.3%
[2]
  viability, T/C: 79.8%
[3]
  viability, T/C: 73.9%
[4]
  viability, T/C: 86.3%
[5]
  viability, T/C: 69.6%
[6]
  viability, T/C: 57.2%
[7]
  viability, T/C: 94%
[8]
  viability, T/C: 85.6%
[9]
  viability, T/C: 72.5%
[10]
  viability, T/C: 83.8%
[11]
  viability, T/C: 69.1%
[12]
  viability, T/C: 67.7%
[13]
  viability, T/C: 98.3%
[14]
  viability, T/C: 91.1%
[15]
  viability, T/C: 69.4%
[16]
  viability, T/C: 77%
[17]
  viability, T/C: 65.2%
[18]
  viability, T/C: 63.3%
[19]
  viability, T/C: 110%
[20]
  viability, T/C: 92%
[21]
  viability, T/C: 76.5%
[22]
  viability, T/C: 83.7%
[23]
  viability, T/C: 75.5%
[24]
  viability, T/C: 61.1%
[25]
  viability, T/C: 96.5%
[26]
  viability, T/C: 99.9%
[27]
  viability, T/C: 74.2%
[28]
  viability, T/C: 69.7%
[29]
  viability, T/C: 70.9%
[30]
  viability, T/C: 60.3%
[31]
  viability, T/C: 102%
[32]
  viability, T/C: 79.1%
[33]
  viability, T/C: 69.9%
[34]
  viability, T/C: 62.7%
[35]
  viability, T/C: 67.3%
[36]
  viability, T/C: 49.8%

Source: PubChem BioAssay AID1963850 (Molecular Pharmacology Branch, DTP, NCI, 2024)
